Data: patent US7022708B2, “4-piperazinyl benzenesulfonyl indoles and uses thereof” (Roche Palo Alto LLC, priority 2002, dated 2006)

## O=S(=O)(c1ccc(N2CCNCC2)cc1)n1ccc2cc(F)ccc21 [Compound 1, 5-Fluoro-1-(4-piperazin-1-yl-benzenesulfonyl)-1H-indole]
  melting point: 77 to 78 °C

## O=S(=O)(c1ccc(N2CCNCC2)cc1)c1cc2ccccc2[nH]1 [Compound 39, 2-(4-Piperazin-1-yl-benzenesulfonyl)-1H-indole]
  melting point: 246 to 248.5 °C
